Results reported in patent US20210147814A1, “METHODS FOR GENERATING PLURIPOTENT STEM CELLS” (Memorial Sloan Kettering Cancer Center, priority 2017, published 2021).
Where two headings read alike, the source gives them in different places.

Tests used:
[1] = system: G-quadruplex (G4) DNA structure; assay: G4 DNA structure formation (G4 IHC staining, G4-antibody ChIP-seq) in fibroblasts; type: cell-based, human; conditions: for G4 level / G4 DNA structure formation: 4 hours; for G4 DNA structure formation: cells with high ROS levels
Experimental: G4 and 8-oxoguanosine Immunostaining. Cells were fixed in 3.7% formaldehyde for 20 minutes at room temperature and washed with phosphate buffered saline (PBS). Samples were then permeabilized with 0.1 Triton X-100 in PBS for 20 minutes and blocked for 1 hour with 3% bovine serum albumin (BSA) in PBS-T, followed by incubation with primary antibodies for 2 hours at room temperature or overnight at 4° C. Anti-DNA G-quadruplex (G4) Antibody, clone 1H6 (MABE1126, EMD Millipore, Burlington, Mass.) was used for the detection of DNA G-quadruplex and ANTI-8 HYDROXYGUANOSINE AB (N45.1) AB48508 from Abcam (Cambridge, United Kingdom). Primary antibodies were used at a 1:250 dilution and 1:50 respectively. Alexa 568-conjugated goat anti-mouse IgM (A-21124) was from Molecular Probes (Eugene, Oreg.). Secondary antibodies were used at a 1:1000 dilution. The nuclei were stained with 4′,6-diamidino-2-phenylindole (DAPI, Sigma, St. Louis, Mo.). Image quantification was performed with Image J (NIH, Bethesda, Md.), quantifying mean fluorescence intensity in the nuclear regions.
GSH and BSO Treatment, Time-Course Experiment. High ROS fibroblasts were treated by adding glutathione reduced ethyl ester (3 mM, GEE; Gold Biotechnology Inc., St. Louis, Mo.) to the media. Treated High ROS fibroblasts were then fixed and processed for staining at multiple timepoints. Low ROS fibroblasts were treated with L-Buthionine-sulfoximine (500 μM, BSO; Sigma, St. Louis, Mo.) to the media. Treated Low ROS fibroblasts were then fixed and processed for staining at multiple timepoints.
CHIP-SEQ for G4 Structures. Chromatin immunoprecipitation (ChIP) was performed according to the published protocol (see Carey, M. F., et al., Chromatin Immunoprecipitation (ChIP), COLD SPRING HARB PROTOC (CSH Press) (2009)). Anti-DNA G-quadruplex (G4) Antibody, clone 1H6 (MABE1126, EMD Millipore, Burlington, Mass.) was used for the detection of DNA G-quadruplex.

[2] = system: pATM; assay: Immunoblot of pATM after phleomycin treatment in BSO-A-iPSC; type: cell-based; conditions: 0.5 mM from end of reprogramming day 5, ten independent clones of A-iPSC
Experimental: Immunoblot analysis. […] Secondary antibodies were from Cell Signaling (1:10,000).
BSO treatment. BSO-A-iPSC were generated in the presence of 500 μM of L-Buthionine-sulfoximine (BSO, Sigma, B2515) starting on the end of reprogramming day 5. The treatment was kept throughout the end of reprogramming process and after picking the colonies.
BSO-A-iPSC were generated in the presence of 500 μM of L-Buthionine-sulfoximine (BSO, Sigma B2515) starting on the end of reprogramming day 5 as previously described (see, e.g., Ji, et al. Experimental & Molecular Medicine 42:175-186 (2010)).

[3] = system: mouse A-iPSC; assay: DNA damage response in mouse A-iPSC treated with GSS inhibitor; type: cell-based; conditions: treatment of mouse A-iPSC; data not shown
Source text: A-iPSC have excessive levels of glutathione (FIG. 3D) and elevated ROS scavenging activity (FIG. 3E) relative to Y-iPSC or ESC. While ROS levels in A-iPSC were increased by treatment with DNA damaging agents (FIG. 3E) and this might be sufficient to cause direct DNA damage and genomic instability, improper scavenging of ROS by excess glutathione would limit the ROS cellular stress signal needed to induce the DNA damage response, which would in turn reduce apoptosis and increase A-iPSC exposure to additional genotoxic stress, allowing accumulation of mutations and other genomic alterations. Upon ZSCAN10 expression, glutathione and ROS scavenging activity were normalized to levels equivalent to those seen in Y-iPSC and ESC (FIG. 3D, 3E). In addition, shRNA knockdown of GSS in reprogrammed A-iPSC (data not shown) decreased glutathione levels and ROS scavenging activity (data not shown), increased apoptosis (FIG. 3F), and recovered the DNA damage response (FIG. 3G). The DNA damage response was also recovered by treatment of A-iPSC with the GSS pharmacological inhibitor, L-Buthionine-sulfoximine (BSO) (data not shown). Conversely, overexpression of GSS in Y-iPSC (data not shown) increased glutathione and ROS scavenging activity (data not shown), decreased apoptosis (FIG. 3F), and blunted the DNA damage response (FIG. 311).

[4] = system: somatic cells; assay: Modification of cellular ROS levels in high-ROS / low-ROS somatic cells; type: cell-based, human; conditions: 4 hours
[5] = system: human AG4 fibroblasts; conditions: AG4-GSH vs AG4 control, 100,000 cells each, iPSC colonies counted at day 21
Experimental: (§1) For the generation of human A-iPSC, 10^5 skin fibroblasts such as young somatic cells (Y-SC) from MRCS and aged somatic cells (A-SC) from LS and AG4 donors aged 80 to 100 years were infected with retrovirus generated from the tetracistronic SFG-SV2 vector encoding for hOCT4, hSOX2, hKLF4, and hMYC in 6-well dishes with 0.5 mL of each viral supernatant (total 2 mL per well); and spun at 2500 rpm at RT for 90 min (BenchTop Centrifuge, BeckmanCoulter, Allegra-6R). The cells were contacted with 3 mM glutathione reduced ethyl ester prior to and during the early stage of reprogramming (from one day before reprogramming virus infection to 10 days post reprogramming virus infection).

[6] = system: pATM; conditions: A-hiPSC from AG4 fibroblasts, 3 mM from one day before to 10 days post reprogramming virus infection, phleomycin 2 h, 30 μg/mL, vs untreated A-hiPSC
Experimental: as §1

[7] = system: human A-iPSC
Experimental: as §1
Copy number profiling analysis. Copy number profiling analysis was performed according to a published protocol (Baslan et al., Genome Research 25:1-11 (2015)).

[8] = system: GSS; conditions: A-iPSC generated with 3 mM treatment; vs untreated A-iPSC
Experimental: (§2) Quantitative real time-PCT (Q-PCR) analysis. The expression levels of genes (ZSCAN10, GSS) were quantified by Q-PCR with Power SYBR Green PCR mastermix (Applied Biosystems). Total RNAs (1 μg) were reverse-transcribed in a volume of 20 μL using the M-MuLV Reverse Transcriptase system (New England Biolabs), and the resulting cDNA was diluted into a total volume of 200 μL. 10 μL of this synthesized cDNA solution was used for analysis. For pluripotent genes, each reaction was performed in a 25-μL volume using the Power SYBR Green PCR mastermix (Applied Biosystems). The conditions were programmed as follows: initial denaturation at 95° C. for 10 min followed by 40 cycles of 30 sec at 95° C., 1 min at 55° C., and 1 min at 72° C.; then 1 min at 95° C., 30 s at 55° C., and 30 sec at 95° C. All of the samples were duplicated, and the PCR reaction was performed using an Mx3005 reader (Stratagene), which can detect the amount of synthesized signals during each PCR cycle. The relative amounts of the mRNAs were determined using the MxPro program (Strategene). The amount of PCR product was normalized to the percentage of the expression level of β-actin.

[9] = system: ZSCAN10; conditions: A-iPSC generated with 3 mM treatment; vs untreated A-iPSC
Experimental: as §2

[10] = system: A-SC from AG4 donor; conditions: 3 mM for three days in the media
Source text: Reactive oxygen species (ROS) analysis. The production of superoxide by mitochondria can be visualized in fluorescence microscopy using the MitoSOX™ Red reagent (M36008, Thermofisher scientific). MitoSOX™ Red reagent permeates live cells where it selectively targets mitochondria. It is rapidly oxidized by superoxide but not by other reactive oxygen species (ROS) and reactive nitrogen species (RNS). The oxidized product is highly fluorescent upon binding to nucleic acid. Fluorescence microscopy was used to visualize the fluorescence and imaging software (Image J) was used to quantify the staining of the different cell lines.
MitoSOX RED Staining. MitoSOX Red staining (MitoSOX™ Red mitochondrial superoxide indicator *for live-cell Imaging, M36008, ThermoFisher Scientific, Waltham, Mass.) was performed according to Molecular Probes/Thermo Scientific protocol. Briefly, the MitoSOX™ reagent stock solution (5 mM, prepared in HBSS/Ca/Mg or suitable buffer) was diluted to make a 5 μM MitoSOX™ reagent working solution. 1.0-2.0 mL of the 5 μM MitoSOX™ reagent working solution was applied to cover cells adhering to coverslip(s). Cells were incubated for 10 minutes at 37° C., protected from light. Cells were washed before imaging.

Which G4 level ([1]; 0.5 mM, low-ROS somatic cells) does the source give for `CCCCS(=N)(=O)CCC(N)C(=O)O` [BSO, L-Buthionine-sulfoximine] here?
Its G4 level is “increases”.

What about the “G4 IHC staining of fibroblasts” value ([1]; low ROS fibroblasts, 500 μM, time-course (FIG. 14B)) of the same compound?
The value was “higher G4 IHC staining”.

What about the “DNA damage response (pATM immunoblot)” value [2] of the same compound?
Its value is “recovery of the DNA damage response”.

And the DNA damage response [3]?
The DNA damage response was “recovered”.

And the “cellular ROS level” value ([4]; 0.5 mM, low-ROS somatic cells)?
The value was “increases”.

What does the source list for `N[C@@H](CCC(=O)N[C@@H](CS)C(=O)NCC(=O)O)C(=O)O` [glutathione reduced ethyl ester]?
increase of reprogramming efficiency [5]: approximately 10 fold; DNA damage response (pATM immunoblot) [6]: protects the DNA damage response; DNA damage response (pATM immunoblot) ([6]; listed as glutathione): impairs the DNA damage response; genomic stability (copy number profiling) ([7]; A-hiPSC from AG4 fibroblasts, 3 mM prior to and during first 10 days of reprogramming, vs untreated A-hiPSC): maintains genomic stability; detected rearrangements per number of clones (copy number profiling) ([7]; human A-iPSC with glutathione treatment, 10 clones, untreated A-hiPSC 7/11): 0/10; GSS levels in the A-iPSC (Q-PCR) [8]: reduced; ZSCAN10 levels in the A-iPSC (Q-PCR) [9]: elevated; G4 DNA structure formation ([1]; 3 mM): reduces G4 DNA structure formation; G4 DNA structure formation ([1]; 3 mM, listed as GEE): decreases; G4 IHC staining of fibroblasts ([1]; high ROS fibroblasts, 3 mM, time-course (FIG. 14A)): lower G4 IHC staining; cellular ROS level ([4]; 3 mM, high-ROS somatic cells): decreases; cellular ROS level (MitoSOX staining) [10]: reduces the cellular ROS level

With `NCCOc1cc(C(=O)Nc2cc(OCCN)c3ccccc3n2)nc(C(=O)Nc2cc(OCCN)c3ccccc3n2)c1` [pyridostatin] as the compound, how does the G4 level ([1]; 10 μM, somatic cells) read?
The G4 level was “increases G4”.
